# Measurements as given in patent publication US20140045832A1, “Insulin-Like Growth Factor-1 Receptor Inhibitors” (PIRAMAL ENTERPRISES LIMITED, priority 2011, published 2014).
# What was measured:
# human IGF-1R = biological target: T1, human IGF-1R (Homo sapiens, UniProt P08069); experiment: In vitro IGF-1R kinase assay (HTRF); type: biochemical; settings: intracellular kinase domain GST fusion, ATP 20 μM, 1 hour at 23° C., read-out: IGFIR-Activity
# T1 construct: IGFRK and IRK enzyme used for the assay was intracellular kinase domain of human IGF-1R and human IR; made in house
# Experimental: The in vitro kinase assays using IGF-1R and IR kinase GST fusion proteins were conducted using a homogeneous time-resolved fluorescence (HTRF) format. […] The standard enzyme reaction buffer consisted of 50 mM Tris HCL (pH: 7.4), 1 mM EGTA, 10 mM MgCl2, 2 mM DTT, 0.01% Tween-20, IGF-1R/IR kinase enzyme, poly GT peptide substrate (Perkin Elmer [Ulight Glu-Tyr (4:1)]n) and ATP [concentration equivalent to Kmapp]. […] Briefly, 2.5 μL enzyme and 2.5 μL inhibitor was pre-incubated for 10 minutes at 23° C. followed by the addition of 2.5 μL of poly GT substrate (final concentration of 50 nM). Reaction was initiated with the addition of 2.5 μL of ATP (final concentration of 20 μM for IGF-1R assay and 10 μM for IR assay). After 1 hour incubation at 23° C., the kinase reaction was stopped with the addition of 5 μL EDTA (final concentration of 10 mM in 20 μL). Europium cryptate—labeled antiphosphotyrosine antibody PY20 (5 μL) was added (final concentration of 2 nM) and the mixture was allowed to equilibrate for 1 hour at 23° C. followed by reading the plate in an Envision plate reader. The intensity of light emission at 665 nm was directly proportional to the level of substrate phosphorylation. The IC50 values for inhibitors were determined by a four-parameter sigmoidal curve fit (Sigma plot or Graph pad).
# IGFRK and IRK enzyme used for the assay was intracellular kinase domain of human IGF-1R and human IR cloned and expressed as GST fusion proteins using the baculovirus expression system and purified using glutathione—Sepharose column.
# CYP3A4 = biological target: T2, CYP3A4 (Homo sapiens, UniProt P08684); experiment: CYP inhibition fluorescence assay (rhCYP450, Vivid Invitrogen kit); type: in vitro ADME; settings: recombinant human CYP3A4, 10 μM compound, read-out: % inhibition of CYP 3A4 at 10 μM
# T2 construct: purchased Invitrogen (Vivid screening kits)
# Experimental: The % inhibition @ 10 μM data was generated from an rhCYP450/fluorescence assay according to the Vivid Invitrogen screening kits. The compounds were screened against CYP 3A4 isoform because CYP3A4 is responsible for the metabolism of approximately 50-60% of clinical drugs. The lower the percentage inhibition, the lower the CYP450 inhibitory liability of that specific compound.
# T2 sequence (P08684 whole entry): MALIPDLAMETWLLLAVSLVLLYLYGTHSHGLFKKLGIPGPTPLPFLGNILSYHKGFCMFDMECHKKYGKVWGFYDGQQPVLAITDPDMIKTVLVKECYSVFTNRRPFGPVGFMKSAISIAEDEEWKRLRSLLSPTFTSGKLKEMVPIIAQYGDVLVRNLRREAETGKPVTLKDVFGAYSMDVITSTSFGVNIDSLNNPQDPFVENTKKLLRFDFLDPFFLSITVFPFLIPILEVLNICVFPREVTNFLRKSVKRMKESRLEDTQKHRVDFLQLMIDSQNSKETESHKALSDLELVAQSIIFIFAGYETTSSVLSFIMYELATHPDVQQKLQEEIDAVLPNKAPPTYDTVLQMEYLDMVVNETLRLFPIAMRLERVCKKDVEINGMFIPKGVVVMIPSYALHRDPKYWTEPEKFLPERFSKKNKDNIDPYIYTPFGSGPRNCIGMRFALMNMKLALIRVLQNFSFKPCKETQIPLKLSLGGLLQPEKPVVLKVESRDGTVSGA
# T1 sequence (P08069 999-1274 limits assumed): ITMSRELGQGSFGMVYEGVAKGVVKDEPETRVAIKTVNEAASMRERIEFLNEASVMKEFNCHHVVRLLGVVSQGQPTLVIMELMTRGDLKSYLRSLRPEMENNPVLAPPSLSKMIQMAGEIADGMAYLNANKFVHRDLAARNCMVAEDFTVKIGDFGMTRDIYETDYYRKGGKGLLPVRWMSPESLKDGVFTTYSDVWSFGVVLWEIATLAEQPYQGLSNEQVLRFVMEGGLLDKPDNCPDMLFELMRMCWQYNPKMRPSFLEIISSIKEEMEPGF
compound,measurement,setting,value
"NC(=O)c1[nH]c2c(NCC3(N)CCCC3)cc(Cl)cc2c1S(=O)(=O)N1CCO[C@H](COc2ccccc2)C1 [Compound 25, (S)-7-((1-aminocyclopentyl)methylamino)-5-chloro-3-(2-(phenoxymethyl)morpholinosulfonyl)-1H-indole-2-carboxamide]",IC50,human IGF-1R,> 100 nM
"NC(=O)CCNc1cc(Cl)cc2c(S(=O)(=O)N3CCO[C@H](COc4ccccc4)C3)c(C(N)=O)[nH]c12 [Compound 17, (S)-7-(3-amino-3-oxopropylamino)-5-chloro-3-(2-(phenoxymethyl)morpholinosulfonyl)-1H-indole-2-carboxamide]",IC50,human IGF-1R,11.5 nM
"NC(=O)c1[nH]c2c(NC3CCCCC3)cc(Cl)cc2c1S(=O)(=O)N1CCO[C@H](COc2ccccc2)C1 [Compound 21, (S)-5-chloro-7-(cyclohexylamino)-3-(2-(phenoxymethyl)morpholinosulfonyl)-1H-indole-2-carboxamide]",IC50,human IGF-1R,> 100 nM
"CC(C)CN1CCC(Nc2cc(Cl)cc3c(S(=O)(=O)N4CCO[C@H](COc5ccccc5)C4)c(C(N)=O)[nH]c23)CC1 [Compound 31, (S)-5-chloro-7-(1-isobutylpiperidin-4-ylamino)-3-(2-(phenoxymethyl)morpholinosulfonyl)-1H-indole-2-carboxamide]",IC50,human IGF-1R,39 nM
"NC(=O)c1[nH]c2c(NC(=O)CCCC(=O)N3CCOCC3)cc(Cl)cc2c1S(=O)(=O)N1CCO[C@H](COc2ccccc2)C1 [Compound 13, (S)-5-chloro-7-(5-morpholino-5-oxopentanamido)-3-(2-(phenoxymethyl)morpholinosulfonyl)-1H-indole-2-carboxamide]",IC50,human IGF-1R,7.6 nM
same,inhibition at 10 µM,CYP3A4,46%
"NC(=O)c1[nH]c2c(NCCC(=O)O)cc(Cl)cc2c1S(=O)(=O)N1CCO[C@H](COc2ccccc2)C1 [Compound 16, (S)-3-(2-carbamoyl-5-chloro-3-(2-(phenoxymethyl)morpholinosulfonyl)-1H-indol-7-ylamino)propanoic acid]",IC50,human IGF-1R,2.6 nM
"NC(=O)c1[nH]c2c(NC(=S)Nc3ccccc3)cc(Cl)cc2c1S(=O)(=O)N1CCO[C@H](COc2ccccc2)C1 [Compound 35, (S)-5-chloro-3-(2-(phenoxymethyl)morpholinosulfonyl)-7-(3-phenylthioureido)-1H-indole-2-carboxamide]",IC50,human IGF-1R,1.3 nM
same,inhibition at 10 µM,CYP3A4,< 40%
"NC(=O)c1[nH]c2c(NCC3CCCCC3)cc(Cl)cc2c1S(=O)(=O)N1CCO[C@H](COc2ccccc2)C1 [Compound 22, (S)-5-chloro-7-(cyclohexylmethylamino)-3-(2-(phenoxymethyl)morpholinosulfonyl)-1H-indole-2-carboxamide]",IC50,human IGF-1R,> 100 nM
"NC(=O)c1[nH]c2c(NC3CCNC3)cc(Cl)cc2c1S(=O)(=O)N1CCO[C@H](COc2ccccc2)C1 (stereo partly drawn) [Compound 32, 5-chloro-3-((S)-2-(phenoxymethyl)morpholinosulfonyl)-7-(pyrrolidin-3-ylamino)-1H-indole-2-carboxamide]",IC50,human IGF-1R,48.7 nM
"CCOC(=O)CCCNc1cc(Cl)cc2c(S(=O)(=O)N3CCO[C@H](COc4ccccc4)C3)c(C(N)=O)[nH]c12 [Compound 18, (S)-ethyl 4-(2-carbamoyl-5-chloro-3-(2-(phenoxymethyl)morpholinosulfonyl)-1H-indol-7-ylamino)butanoate]",IC50,human IGF-1R,> 100 nM
"CC(C)(CC(=O)O)CC(=O)Nc1cc(Cl)cc2c(S(=O)(=O)N3CCO[C@H](COc4ccccc4)C3)c(C(N)=O)[nH]c12 [Compound 9, (S)-5-(2-carbamoyl-5-chloro-3-(2-(phenoxymethyl)morpholinosulfonyl)-1H-indol-7-ylamino)-3,3-dimethyl-5-oxopentanoic acid]",IC50,human IGF-1R,55.8 nM
"CC(C)(CC(=O)Nc1cc(Cl)cc2c(S(=O)(=O)N3CCO[C@H](COc4ccccc4)C3)c(C(N)=O)[nH]c12)C(=O)O [Compound 10, (S)-4-(2-carbamoyl-5-chloro-3-(2-(phenoxymethyl)morpholinosulfonyl)-1H-indol-7-ylamino)-2,2-dimethyl-4-oxobutanoic acid]",IC50,human IGF-1R,29.9 nM
"NC(=O)c1[nH]c2c(NC(=O)CCCC(=O)O)cc(Cl)cc2c1S(=O)(=O)N1CCO[C@H](COc2ccccc2)C1 [Compound 11, (S)-5-(2-carbamoyl-5-chloro-3-(2-(phenoxymethyl)morpholinosulfonyl)-1H-indol-7-ylamino)-5-oxopentanoic acid]",IC50,human IGF-1R,10 nM
same,inhibition at 10 µM,CYP3A4,15%
"NC(=O)c1[nH]c2c(NC3CCN(C(=O)NCC4CCCCC4)CC3)cc(Cl)cc2c1S(=O)(=O)N1CCO[C@H](COc2ccccc2)C1 [Compound 29, (S)-5-chloro-7-(1-(cyclohexylmethylcarbamoyl)piperidin-4-ylamino)-3-(2-(phenoxymethyl)morpholinosulfonyl)-1H-indole-2-carboxamide]",IC50,human IGF-1R,32.9 nM
"NC(=O)c1[nH]c2c(NC3CCCC3)cc(Cl)cc2c1S(=O)(=O)N1CCO[C@H](COc2ccccc2)C1 [Compound 24, (S)-5-chloro-7-(cyclopentylamino)-3-(2-(phenoxymethyl)morpholinosulfonyl)-1H-indole-2-carboxamide]",IC50,human IGF-1R,> 100 nM
"N#CCC(=O)Nc1cc(Cl)cc2c(S(=O)(=O)N3CCO[C@H](COc4ccccc4)C3)c(C(N)=O)[nH]c12 [Compound 14, (S)-5-chloro-7-(2-cyanoacetamido)-3-(2-(phenoxymethyl)morpholinosulfonyl)-1H-indole-2-carboxamide]",IC50,human IGF-1R,> 100 nM
"NC(=O)c1[nH]c2c(NC(=O)CCC(=O)O)cc(Cl)cc2c1S(=O)(=O)N1CCO[C@H](COc2ccccc2)C1 [Compound 8, (S)-4-(2-carbamoyl-5-chloro-3-(2-(phenoxymethyl)morpholinosulfonyl)-1H-indol-7-ylamino)-4-oxobutanoic acid]",IC50,human IGF-1R,6.6 nM
same,inhibition at 10 µM,CYP3A4,0%
"NC(=O)c1[nH]c2c(NCc3ccc(C(=O)O)cc3)cc(Cl)cc2c1S(=O)(=O)N1CCO[C@H](COc2ccccc2)C1 [Compound 26, (S)-4-((2-carbamoyl-5-chloro-3-(2-(phenoxymethyl)morpholinosulfonyl)-1H-indol-7-ylamino)methyl)benzoic acid]",IC50,human IGF-1R,< 100 nM
"CC(C)(C)NC(=O)N1CCC(Nc2cc(Cl)cc3c(S(=O)(=O)N4CCO[C@H](COc5ccccc5)C4)c(C(N)=O)[nH]c23)CC1 [Compound 27, (S)-7-(1-(tert-butylcarbamoyl)piperidin-4-ylamino)-5-chloro-3-(2-(phenoxymethyl)morpholinosulfonyl)-1H-indole-2-carboxamide]",IC50,human IGF-1R,9.8 nM
"CCOC(=O)CCCC(=O)Nc1cc(Cl)cc2c(S(=O)(=O)N3CCO[C@H](COc4ccccc4)C3)c(C(N)=O)[nH]c12 [Compound 15, (S)-ethyl 5-(2-carbamoyl-5-chloro-3-(2-(phenoxymethyl)morpholinosulfonyl)-1H-indol-7-ylamino)-5-oxopentanoate]",IC50,human IGF-1R,< 100 nM
"CCOC(=O)N1CCC(Nc2cc(F)cc3c(S(=O)(=O)N4CCO[C@H](COc5ccccc5)C4)c(C(N)=O)[nH]c23)CC1 [Compound 33, (S)-ethyl 4-(2-carbamoyl-5-fluoro-3-(2-(phenoxymethyl)morpholinosulfonyl)-1H-indol-7-ylamino)piperidine-1-carboxylate]",IC50,human IGF-1R,< 100 nM
"NC(=O)c1[nH]c2c(NC3CCNCC3)cc(Cl)cc2c1S(=O)(=O)N1CCO[C@H](COc2ccccc2)C1 [Compound 36, (S)-5-chloro-3-(2-(phenoxymethyl)morpholinosulfonyl)-7-(piperidin-4-ylamino)-1H-indole-2-carboxamide]",IC50,human IGF-1R,22 nM
"NC(=O)c1[nH]c2c(NCc3ccc(F)cc3)cc(Cl)cc2c1S(=O)(=O)N1CCO[C@H](COc2ccccc2)C1 [Compound 30, (S)-5-chloro-7-(4-fluorobenzylamino)-3-(2-(phenoxymethyl)morpholinosulfonyl)-1H-indole-2-carboxamide]",IC50,human IGF-1R,> 100 nM
